# Data reported in patent publication US20210017295A1, “BISPECIFIC BINDING AGENTS AND USES THEREOF” (MEMORIAL SLOAN KETTERING CANCER CENTER, priority 2018, published 2021).
# “And” between values parts separate entries of the source, which are not always exact repeats. Identical values can stand only once. Like-named read-outs stand apart in the source and are kept apart here.
# Test system: s.c. HER2(+) BT-474 tumors
# Type: in vivo, mouse
# Conditions: 24 h p.i.
# [1] = PRIT + CA 62.5 μg, 55.5 MBq (~300 pmol), mean ± SEM
# [2] = PRIT + CA 62.5 μg, ~5.6 MBq (~30 pmol), mean ± SEM
# [3] = PRIT, CA 0% (saline), mean ± SD
# [4] = PRIT, CA 7.5% w/w 18.75 μg, mean ± SD
# [5] = PRIT, CA 14% w/w 37.5 μg, mean ± SD
# [6] = PRIT, CA 28% w/w 70 μg, mean ± SD
smiles,measurement,setting,value
Nc1ccc(CC2CN(CC(=O)[O-])CCN(CC(=O)[O-])CCN(CC(=O)[O-])CCN2CC(=O)[O-])cc1.[177Lu+3] (centres unmarked) [^177Lu-DOTA-Bn],^177Lu activity in Blood,[1],0.29±0.05 % IA/g
same,^177Lu activity in Bone,[1],0.04 ± 0.01 % IA/g
same,^177Lu activity in Heart,[1],0.11 ± 0.02 % IA/g
same,^177Lu activity in Kidneys,[1],0.56±0.08 % IA/g
same,^177Lu activity in Large Int.,[1],0.20 ± 0.11 % IA/g
same,^177Lu activity in Liver,[1],0.33 ± 0.04 % IA/g
same,^177Lu activity in Lungs,[1],0.20 ± 0.02 % IA/g
same,^177Lu activity in Muscle,[1],0.04 ± 0.01 % IA/g
same,^177Lu activity in Small Int.,[1],0.05 ± 0.01 % IA/g
same,^177Lu activity in Spleen,[1],0.22 ± 0.07 % IA/g
same,^177Lu activity in Stomach,[1],0.04 ± 0.01 % IA/g
same,^177Lu activity in Tumor,[1],5.53±0.27 % IA/g
same,^177Lu activity in Blood,[2],0.28±0.09 % IA/g
same,^177Lu activity in Bone,[2],0.04 ± 0.01 % IA/g
same,^177Lu activity in Heart,[2],0.07 ± 0.02 % IA/g
same,^177Lu activity in Kidneys,[2],0.73±0.05 % IA/g
same,^177Lu activity in Large Int.,[2],0.18 ± 0.01 % IA/g
same,^177Lu activity in Liver,[2],0.27 ± 0.07 % IA/g
same,^177Lu activity in Lungs,[2],0.20 ± 0.05 % IA/g
same,^177Lu activity in Muscle,[2],0.06 ± 0.01 % IA/g
same,^177Lu activity in Small Int.,[2],0.05 ± 0.01 % IA/g
same,^177Lu activity in Spleen,[2],0.60 ± 0.21 % IA/g
same,^177Lu activity in Stomach,[2],0.06 ± 0.01 % IA/g
same,^177Lu activity in Tumor,[2],7.58±0.78 % IA/g
same,^177Lu activity in Blood,"PRIT + no CA, mean ± SEM",4.95 ± 0.58 % IA/g
same,^177Lu activity in Bone,"PRIT + no CA, mean ± SEM",0.39 ± 0.08 % IA/g
same,^177Lu activity in Heart,"PRIT + no CA, mean ± SEM",1.14 ± 0.14 % IA/g
same,^177Lu activity in Kidneys,"PRIT + no CA, mean ± SEM",2.31 ± 0.26 % IA/g
same,^177Lu activity in Large Int.,"PRIT + no CA, mean ± SEM",0.58 ± 0.06 % IA/g
same,^177Lu activity in Liver,"PRIT + no CA, mean ± SEM",1.85 ± 0.15 % IA/g
same,^177Lu activity in Lungs,"PRIT + no CA, mean ± SEM",2.11 ± 0.23 % IA/g
same,^177Lu activity in Muscle,"PRIT + no CA, mean ± SEM",0.38 ± 0.04 % IA/g
same,^177Lu activity in Small Int.,"PRIT + no CA, mean ± SEM",0.58 ± 0.06 % IA/g
same,^177Lu activity in Spleen,"PRIT + no CA, mean ± SEM",1.00 ± 0.11 % IA/g
same,^177Lu activity in Stomach,"PRIT + no CA, mean ± SEM",0.34 ± 0.04 % IA/g
same,^177Lu activity in Tumor,"PRIT + no CA, mean ± SEM",19.94±1.7 % IA/g and 19.94 ± 1.77 % IA/g
same,"Tumor-to-tissue ratio, Blood",[3],4.0±1.2
same,"Tumor-to-tissue ratio, Bone",[3],50.8 ± 22.7
same,"Tumor-to-tissue ratio, Heart",[3],17.5 ± 5.4
same,"Tumor-to-tissue ratio, Kidneys",[3],8.6 ± 2.5
same,"Tumor-to-tissue ratio, Large Int.",[3],34.4 ± 9.3
same,"Tumor-to-tissue ratio, Liver",[3],10.8 ± 2.6
same,"Tumor-to-tissue ratio, Lungs",[3],9.5 ± 2.6
same,"Tumor-to-tissue ratio, Muscle",[3],52.1 ± 15.2
same,"Tumor-to-tissue ratio, Small Int.",[3],34.5 ± 9.3
same,"Tumor-to-tissue ratio, Spleen",[3],19.9 ± 5.5
same,"Tumor-to-tissue ratio, Stomach",[3],59.1 ± 18.8
same,^177Lu activity in Blood,[3],4.95±1.17 % IA/g
same,^177Lu activity in Bone,[3],0.39 ± 0.16 % IA/g
same,^177Lu activity in Heart,[3],1.14 ± 0.29 % IA/g
same,^177Lu activity in Kidneys,[3],2.31 ± 0.52 % IA/g
same,^177Lu activity in Large Int.,[3],0.58 ± 0.12 % IA/g
same,^177Lu activity in Liver,[3],1.85 ± 0.30 % IA/g
same,^177Lu activity in Lungs,[3],2.11 ± 0.45 % IA/g
same,^177Lu activity in Muscle,[3],0.38 ± 0.09 % IA/g
same,^177Lu activity in Small Int.,[3],0.58 ± 0.12 % IA/g
same,^177Lu activity in Spleen,[3],1.00 ± 0.21 % IA/g
same,^177Lu activity in Stomach,[3],0.34 ± 0.09 % IA/g
same,^177Lu activity in Tumor,[3],19.94±3.54 % IA/g
same,"Tumor-to-tissue ratio, Blood",[4],7.1 ± 4.1
same,"Tumor-to-tissue ratio, Bone",[4],80.6 ± 61.9
same,"Tumor-to-tissue ratio, Heart",[4],16.0 ± 9.6
same,"Tumor-to-tissue ratio, Kidneys",[4],9.7 ± 6.0
same,"Tumor-to-tissue ratio, Large Int.",[4],29.9 ± 10.7
same,"Tumor-to-tissue ratio, Liver",[4],15.0 ± 7.8
same,"Tumor-to-tissue ratio, Lungs",[4],15.8 ± 7.9
same,"Tumor-to-tissue ratio, Muscle",[4],67.5 ± 20.1
same,"Tumor-to-tissue ratio, Small Int.",[4],33.7 ± 19.2
same,"Tumor-to-tissue ratio, Spleen",[4],12.6 ± 3.3
same,"Tumor-to-tissue ratio, Stomach",[4],59.2 ± 17.0
same,^177Lu activity in Blood,[4],1.03 ± 0.58 % IA/g
same,^177Lu activity in Bone,[4],0.09 ± 0.07 % IA/g
same,^177Lu activity in Heart,[4],0.45 ± 0.27 % IA/g
same,^177Lu activity in Kidneys,[4],0.75 ± 0.46 % IA/g
same,^177Lu activity in Large Int.,[4],0.24 ± 0.08 % IA/g
same,^177Lu activity in Liver,[4],0.49 ± 0.25 % IA/g
same,^177Lu activity in Lungs,[4],0.46 ± 0.23 % IA/g
same,^177Lu activity in Muscle,[4],0.11 ± 0.03 % IA/g
same,^177Lu activity in Small Int.,[4],0.22 ± 0.12 % IA/g
same,^177Lu activity in Spleen,[4],0.58 ± 0.14 % IA/g
same,^177Lu activity in Stomach,[4],0.12 ± 0.03 % IA/g
same,^177Lu activity in Tumor,[4],7.26 ± 0.55 % IA/g
same,"Tumor-to-tissue ratio, Blood",[5],13.1 ± 5.1
same,"Tumor-to-tissue ratio, Bone",[5],159.0 ± 66.7
same,"Tumor-to-tissue ratio, Heart",[5],45.1 ± 18.9
same,"Tumor-to-tissue ratio, Kidneys",[5],8.7 ± 3.2
same,"Tumor-to-tissue ratio, Large Int.",[5],18.9 ± 10.9
same,"Tumor-to-tissue ratio, Liver",[5],14.6 ± 5.3
same,"Tumor-to-tissue ratio, Lungs",[5],19.6 ± 7.4
same,"Tumor-to-tissue ratio, Muscle",[5],84.5 ± 37.6
same,"Tumor-to-tissue ratio, Small Int.",[5],39.8 ± 21.2
same,"Tumor-to-tissue ratio, Spleen",[5],9.8 ± 4.4
same,"Tumor-to-tissue ratio, Stomach",[5],50.1 ± 20.7
same,^177Lu activity in Blood,[5],0.52 ± 0.08 % IA/g
same,^177Lu activity in Bone,[5],0.04 ± 0.01 % IA/g
same,^177Lu activity in Heart,[5],0.15 ± 0.03 % IA/g
same,^177Lu activity in Kidneys,[5],0.78 ± 0.09 % IA/g
same,^177Lu activity in Large Int.,[5],0.36 ± 0.16 % IA/g
same,^177Lu activity in Liver,[5],0.46 ± 0.04 % IA/g
same,^177Lu activity in Lungs,[5],0.35 ± 0.05 % IA/g
same,^177Lu activity in Muscle,[5],0.08 ± 0.02 % IA/g
same,^177Lu activity in Small Int.,[5],0.17 ± 0.07 % IA/g
same,^177Lu activity in Spleen,[5],0.69 ± 0.20 % IA/g
same,^177Lu activity in Stomach,[5],0.14 ± 0.03 % IA/g
same,^177Lu activity in Tumor,[5],6.76 ± 2.39 % IA/g
same,"Tumor-to-tissue ratio, Blood",[6],25.6 ± 13.9
same,"Tumor-to-tissue ratio, Bone",[6],63.5 ± 97.0
same,"Tumor-to-tissue ratio, Heart",[6],63.5 ± 35.2
same,"Tumor-to-tissue ratio, Kidneys",[6],9.4 ± 4.3
same,"Tumor-to-tissue ratio, Large Int.",[6],37.7 ± 18.5
same,"Tumor-to-tissue ratio, Liver",[6],21.2 ± 9.7
same,"Tumor-to-tissue ratio, Lungs",[6],28.5 ± 14.3
same,"Tumor-to-tissue ratio, Muscle",[6],84.6 ± 45.2
same,"Tumor-to-tissue ratio, Small Int.",[6],99.7 ± 47.9
same,"Tumor-to-tissue ratio, Spleen",[6],9.6 ± 4.9
same,"Tumor-to-tissue ratio, Stomach",[6],133.0 ± 76.7
same,^177Lu activity in Blood,[6],0.27 ± 0.08 % IA/g
same,^177Lu activity in Bone,[6],0.11 ± 0.16 % IA/g
same,^177Lu activity in Heart,[6],0.11 ± 0.04 % IA/g
